No end group written: not given here.
Assays:
[1] = test system: Zingiber officinale-originating enzyme; test: Hydrogen peroxide production, DA-64 color development; assay type: biochemical; details: lmM substrate, enzyme 0.3 u/mL, 30 minutes at 50° C., pH 8.0, DA-64/POD
Protocol: To a 50 mM phosphate buffer (pH 8.0) containing 0.5 mM DA-64 (product of Wako Pure Chemical Industries, Ltd.), 200-u/mL POD, 0.1% sodium azide, and lmM fructosyl valine or fructosyl peptide (SEQ ID NOs: 1 to 5) (all being final concentrations), a Zingiber officinale-originating enzyme solution was added in an amount of 0.3 u/mL (final concentration), and the mixture was treated for 30 minutes at 50° C. Absorbance at 700 nm was measured by employment of purified water as a control. Color development of DA-64 was observed (Table 1). Thus, hydrogen peroxide was confirmed to be produced.

[2] = test system: enzyme originating from Zingiber officinale; test: Measurement of fructosyl peptide through glucosone, absorbance at 550 nm; assay type: biochemical; details: 0 to 40 μM substrate, enzyme 1.6 u/mL (30 μL), 16 hours at 37° C.
Protocol: 200 mM Phosphate buffer (pH 8.0) (150 μL), purified water (360 μL), and each of aqueous fructosyl valyl histidine solutions (60 μL) having different concentrations were mixed together so that the final fructosyl valyl histidine concentrations after reaction fell between 0 and 40 μM. The reaction was mixed with a solution of the enzyme originating from Zingiber officinale (1.6 u/mL) (30 μL), and the resultant mixture was allowed to react for 16 hours at 37° C. Subsequently, a mixture which had been prepared in advance by mixing 200 mM acetate buffer (pH 6.0) (750 μL), 4000-u/mL glucose oxidase (Toyobo Co., Ltd.) (450 μL), 0.15% 4-aminoantipyrine (300 μL), 0.3% TOOS (Dojindo Laboratories) (300 μL), 500-u/mL peroxidase (Toyobo Co., Ltd.: Type III) (300 μL), and 1% sodium azide (300 μL) was added to the reaction mixture, and the resultant mixture was treated for 10 minutes at 37° C., followed by measuring absorbance at 550 nm (FIG. 7).

[3] = test system: enzyme originating from a plant belonging to the family Zingiberaceae; test: Enzyme activity on substrates by glucosone production (substrate specificity, Km); assay type: biochemical, Zingiber officinale; details: Lineweaver-Burk's plots; glucosone production at 37° C., pH 8.0
Protocol: The method for determining activity of the enzyme of the present invention is exemplified by a method in which the enzyme is reacted with a substrate fructosyl peptide, to thereby produce non-fructosyl peptide, glucosone, and hydrogen peroxide, and the amount of any one of these compounds produced through the enzyme reaction is measured. Next will be described an example method of measuring the amount of glucosone produced. Hereinafter, unless otherwise specified, the substrate employed for determining activity of the enzyme of the present invention is fructosyl valyl histidine. One unit (U) of the titer of the enzyme is defined as the amount of enzyme which produces 1 μmol glucosone in one minute as measured when the substrate is fructosyl valyl histidine. […]
To the above reaction mixture, a mixture which has been prepared in advance by mixing 200 mM acetate buffer (pH 6.0) (750 μL), 4000-u/mL glucose oxidase (Toyobo Co., Ltd.) (450 μL), 0.15% 4-aminoantipyrine (300 μL), 0.3% TOOS (Dojindo Laboratories) (300 μL), 500-u/mL peroxidase (Toyobo Co., Ltd.: Type III) (300 μL), and 1% sodium azide (300 μL) is added, followed by heating for 10 minutes at 37° C. Thereafter, absorbance is measured at 550 nm. […] Thus, the amount (in micromoles) of glucosone produced in one minute is calculated, and the obtained value is used as the activity unit of the enzyme solution. […]

[4] = test system: Zingiberaceae-plant-origin crude enzyme solution; test: Defructosylation of fructosyl peptide, analysed by capillary electrophoresis; assay type: biochemical, Zingiber officinale; details: reaction mixture 1, 16 hours at 37° C., pH 8.0, control peak area 32 mABU×sec
Protocol: (i) A 100 mM phosphate buffer (pH 8.0) (100 μL), a 500 μM aqueous solution (40 μL) of the N-terminal-valine fructosylated peptide having an amino acid sequence represented by SEQ ID NO: 2 (f-VHL: products of Bioquest), purified water (20 μL), and the Zingiberaceae-plant-origin crude enzyme solution (40 μL) prepared in Example 1 were mixed together, and the mixture was caused to react for 16 hours at 37° C. The reaction mixture was subjected to ultrafiltration (molecular weight: 10,000), and the filtrate was collected (reaction mixture 1). The reaction mixture 1 was analyzed through use of a capillary electrophoresis apparatus CAPI-3200 (product of Otsuka Electronics Co., Ltd) (electrophoresis buffer: 150 mM phosphate buffer (pH 2.0), voltage: 15 kV, detection wavelength: 210 nm) in terms of peak position and peak area.
As a control, purified water was added instead of the crude enzyme solution, and the resultant mixture was allowed to react under similar conditions, to thereby prepare a filtrate (control solution 1). The analysis results obtained from the control solution 1 were compared with those of the reaction mixture 1.
The fructosyl peptide employed in the enzyme reaction or control test had been mixed with corresponding non-fructosylated peptide. The presence or absence of the enzyme activity was determined through comparison of the two peaks.

Row | Compound | Absorbance at 700 nm [1] [mAbs] | absorbance at 550 nm against substrate concentration [2] | Km [3] [µM] | peak attributed to f-VHL (capillary electrophoresis) [4]
1 | f-VHLTP: N-terminal-valine fructosylated pentapeptide substrate (SEQ ID NO: 4) (fructosyl-VHLTP) | 198 | – | – | –
2 | CC(C)[C@H](NC1(CO)O[C@H](CO)[C@@H](O)[C@@H]1O)C(=O)N[C@@H](Cc1c[nH]cn1)C(=O)O (some centres unmarked) [f-VH, fructosyl valyl histidine] | 735 | increase in accordance with the increase in concentration | 1200 | –
3 | f-VHLT: N-terminal-valine fructosylated tetrapeptide substrate (SEQ ID NO: 3) (fructosyl-VHLT) | 558 | – | – | –
4 | f-VHL: N-terminal-valine fructosylated peptide having an amino acid sequence represented by SEQ ID NO: 2; fructosyl tripeptide (fructosyl-Val-His-Leu) | 570 | – | – | does not exist
5 | f-VHLTPE: N-terminal-valine fructosylated hexapeptide substrate (SEQ ID NO: 5) (fructosyl-VHLTPE) | 223 | – | – | –
